Results taken from patent publication US12187752B2, “Solid forms and combination compositions comprising a beta-lactamase inhibitor and uses thereof” (priority 2017, dated 2025).
Values after ≈ are worked out from the molar mass of the structure shown. “Also recorded” adds a separate entry of the source. Counter-ions that a name gives are not always drawn. Like-named read-outs stand apart in the source and are kept apart here.

How the values were obtained:
[1] = Stability of aqueous solutions of combination formulation at pH 5.0; assay type: physicochemical; settings: pH 5.0 at 25° C.
[2] = test system: Stenotrophomonas maltophilia; test: MIC testing, Stenotrophomonas maltophilia; assay type: cell-based; settings: for MIC90 / MIC50: Stenotrophomonas maltophilia
From the text: Stenotrophomonas maltophilia is a Gram negative bacillus. It is an opportunistic MDR pathogen. It has been linked to infections with high morbidity and mortality in severely immunocompromised and debilitated individuals.

[3] = test system: Elizabethkingia meningoseptica; test: MIC testing, Elizabethkingia meningoseptica; assay type: cell-based; settings: for MIC50 / MIC90: Elizabethkingia meningoseptica
[4] = test system: Pseudomonas aeruginosa; test: MIC testing, Pseudomonas aeruginosa isolates non-susceptible to meropenem; assay type: cell-based; settings: for % S@8: 507 isolates non-susceptible to meropenem; for MIC50 / MIC90: Pseudomonas aeruginosa
[5] = test system: Pseudomonas aeruginosa; test: MIC testing, Pseudomonas aeruginosa isolates non-susceptible to cefepime; assay type: cell-based; settings: for % S@8: 554 isolates non-susceptible to cefepime; for MIC50 / MIC90: Pseudomonas aeruginosa
[6] = Physical stability of Compound 1-dihydrochloride at four temperature/RH conditions; assay type: physicochemical
Experimental: A physical stability study of Compound 1-dihydrochloride (mixture of Form 1 and Form 2) was conducted. A solid sample of Compound 1-dihydrochloride was incubated under four relative humidity and temperature conditions: 5° C./ambient RH, 25° C./60% RH, 30° C./65% RH and 40° C./75% RH. At regular intervals, the compound was analyzed by HR-XRPD and TGMS. […] The water content is in line with the monohydrate nature of Compound 1-dihydrochloride Form 1. The TGMS analyses recorded for the 2 weeks and 1-month incubation is also along the 3.8% of water (1 molecule of water per molecule of API).

[7] = Solubility of Compound 1-dihydrochloride in IPA/water mixtures; assay type: physicochemical; settings: IPA/water mixture, aqueous with cosolvent or surfactant or cyclodextrin, thermodynamic from solid
Experimental: In order to design a re-crystallization process for Compound 1-dihydrochloride salt from water as solvent and IPA as anti-solvent, the solubility of the API in these combinations were determined. Suspensions in various water/IPA mixtures were prepared and incubated for 24 hours at 5°, 25°, 40° and 50° C. Upon completion of the incubation time the solids were separated from the mother liquors by centrifugation and filtration and the concentration of Compound 1 in solution was determined by HPLC analysis. The remaining solids were analyzed by HT-XRPD.

[8] = Polymorph and hydrate screen: physical stability of solid forms (AAC, drying); assay type: physicochemical; settings: 40° C. and 75% RH for 2 days
Experimental: The solids obtained from the various crystallization experiments were analyzed by High Throughput XRPD (HT-XRPD). If relevant, the mother liquors were allowed to evaporate completely, and the remaining solids were analyzed by HT-XRPD. Subsequently, all solids were exposed to accelerated aging conditions for 48 hours at 40° C. and 75% RH (AAC).
From the polymorph screen, four novel diffractograms were identified in addition to the two known forms of Compound 1-dihydrochloride, Form 1 and Form 2. Form 1 was the most abundant solid form found in this polymorph screen. The novel diffractograms were designated Forms 3, 4, 5 and 6. All these forms were found with low frequency and were poorly crystalline. […] The HT-XRPD patterns of the new Forms 3, 4, 5 and 6 are shown in FIG. 12, FIG. 13, FIG. 14, and FIG. 15, respectively.
After completion of the equilibration time, the remaining solids were analyzed by HT-XRPD dry under ambient conditions and dried under vacuum. The mother liquors were analyzed by Karl Fisher titration for water content determination. […] The solutions from these experiments were evaporated under vacuum (200 mBar) and the obtained dried solids analyzed by HT-XRPD. All the solids were then exposed to 40° C. and 75% RH for two days.

## CO/N=C(\C(=O)N[C@@H]1C(=O)N2C(C(=O)[O-])=C(C[N+]3(C)CCCC3)CS[C@H]12)c1csc(N)n1 [Cefepime, cefepime]
[1]; 20 hours
  % present, cefepime: 99%
[2]
  % S: 20%
  MIC90: 64 mg/L (≈ 133 µM)
[2]; read-out: MIC50
  MIC50: 32 mg/L (≈ 66.6 µM)
[3]; N=10 strains
  MIC50: 16 mg/L (≈ 33.3 µM)
[3]; N=10 strains, read-out: MIC90
  MIC90: 32 mg/L (≈ 66.6 µM)
[3]; N=10 strains, in µg/mL
  MIC Range: 16-32
[4]
  % S@8: 30.8%
  MIC50: 32 mg/L (≈ 66.6 µM)
  MIC90: 256 mg/L (≈ 533 µM)
[4]; 507 isolates non-susceptible to meropenem (MIC>8 μg/mL)
  MIC Range: 1-128
[5]
  % S@8: 0%
  MIC50: 32 mg/L (≈ 66.6 µM)
  MIC90: 256 mg/L (≈ 533 µM)

## NCCN[C@H]1CC[C@H](CC(=O)N[C@H]2Cc3cccc(C(=O)O)c3OB2O)CC1 [Compound 1-dihydrochloride, (R)-3-(2-(trans-4-(2-aminoethylamino)cyclohexyl)acetamido)-2-hydroxy-3,4-dihydro-2H-benzo[e][1,2]oxaborinine-8-carboxylic acid dihydrochloride]
[6]; 5° C./ambient RH, 25° C./60% RH, 30° C./65% RH and 40° C./75% RH, HR-XRPD, starting mixture of Form 1 and Form 2
  Solid form after three days exposure: full conversion to Form 1
[6]; same four conditions, at least up to 1 month
  Solid form upon incubation for extended periods: No significant changes in the solid form
[7]; 5 °C, IPA/H2O (40:60), 5° C.
  solubility at 24 h: 271 mg/mL
[7]; 5 °C, IPA/H2O (50:50), 5° C.
  solubility at 24 h: 217 mg/mL
[7]; 5 °C, IPA/H2O (60:40), 5° C.
  solubility at 24 h: 129 mg/mL
[7]; 5 °C, IPA/H2O (70:30), 5° C.
  solubility at 24 h: 78.6 mg/mL
[7]; 5 °C, IPA/H2O (80:20), 5° C.
  solubility at 24 h: 28 mg/mL
[7]; 5 °C, IPA/H2O (90:10), 5° C.
  solubility at 24 h: 4.2 mg/mL
[7]; 25 °C, IPA/H2O (40:60), 25° C.
  solubility at 24 h: 429 mg/mL
[7]; 25 °C, IPA/H2O (50:50), 25° C.
  solubility at 24 h: 336 mg/mL
[7]; 25 °C, IPA/H2O (60:40), 25° C.
  solubility at 24 h: 205 mg/mL
[7]; 25 °C, IPA/H2O (70:30), 25° C.
  solubility at 24 h: 101 mg/mL
[7]; 25 °C, IPA/H2O (80:20), 25° C.
  solubility at 24 h: 41.7 mg/mL
[7]; 25 °C, IPA/H2O (90:10), 25° C.
  solubility at 24 h: 4.2 mg/mL
[7]; 40 °C, IPA/H2O (40:60), 40° C.
  solubility at 24 h: 567 mg/mL
[7]; 40 °C, IPA/H2O (50:50), 40° C.
  solubility at 24 h: 454 mg/mL
[7]; 40 °C, IPA/H2O (60:40), 40° C.
  solubility at 24 h: 424 mg/mL
[7]; 40 °C, IPA/H2O (70:30), 40° C.
  solubility at 24 h: 189 mg/mL
[7]; 40 °C, IPA/H2O (80:20), 40° C.
  solubility at 24 h: 81 mg/mL
[7]; 40 °C, IPA/H2O (90:10), 40° C.
  solubility at 24 h: 5.6 mg/mL
[7]; 50 °C, IPA/H2O (40:60), 50° C.
  solubility at 24 h: 714 mg/mL
[7]; 50 °C, IPA/H2O (50:50), 50° C.
  solubility at 24 h: 528 mg/mL
[7]; 50 °C, IPA/H2O (60:40), 50° C.
  solubility at 24 h: 440 mg/mL
[7]; 50 °C, IPA/H2O (70:30), 50° C.
  solubility at 24 h: 235 mg/mL
[7]; 50 °C, IPA/H2O (80:20), 50° C.
  solubility at 24 h: 102 mg/mL
[7]; 50 °C, IPA/H2O (90:10), 50° C.
  solubility at 24 h: 7.2 mg/mL

## NCCN[C@H]1CC[C@H](CC(=O)N[C@H]2Cc3cccc(C(=O)O)c3OB2O)CC1 [Form 6]
[8]
  Physical stability upon exposure to AAC: physically unstable; also recorded: conversion to Form 1 was observed; also recorded: converted to Form 1

## C[C@@H](O)[C@H]1C(=O)N2C(C(=O)O)=C(S[C@@H]3CN[C@H](C(=O)N(C)C)C3)[C@H](C)[C@H]12 [Meropenem, meropenem]
[1]; 24 hours
  % present, meropenem: 89%
[2]
  % S: 0%
  MIC50: 128 mg/L (≈ 334 µM)
  MIC90: > 128 mg/L
[3]
  MIC90: 128 mg/L (≈ 334 µM)
[3]; N=10 strains
  MIC50: 64 mg/L (≈ 167 µM)
  % S@8: 0%
[4]
  % S@8: 0%
  MIC50: 32 mg/L (≈ 83.4 µM)
[4]; read-out: MIC90
  MIC90: > 128 mg/L
[5]
  % S@8: 36.6%
  MIC50: 16 mg/L (≈ 41.7 µM)
[5]; read-out: MIC90
  MIC90: > 128 mg/L
